Patent EP3351262A1, “CURAGLUTIDE FOR IN TREATMENT OF PREDIABETES, DIABETES, OBESITY AND METABOLIC DISEASES ASSOCIATED THERETO” (Istanbul Universitesi Rektorlugu, priority 2016, dated 2018)
Values joined by “and” are separate entries in the source; they are usually repeats but may differ in a detail not shown here. Equal values may be shown once.

Columns and labels:
[1] = tested on: cytochrome-c; assay: Western blotting of apoptotic protein cytochrome-c in cell lysates; format: cell-based, rat; conditions: for amount of cytochrome-c: control 1.02±0.02; for cytochrome-c amounts: INS-1 cells, normalized to β-actin
Method: Trypsin is applied to 75 cm^2 flask containing INS-1 […] beta cells and it is centrifuged in 1500 rpm for 15 minutes. According to the density of pellet formed after centrifuge, it is centrifuged at 4 °C in 1500 rpm for 5 minutes by providing the washing with pipetting with PBS and transferring into 2 ml eppendorf. The supernatant was removed, lysis buffer was added according to the density of pellet and pipetting is performed carefully. It was left for 30 minutes on the ice by vortexing in every 10 minutes. Then the cells were allowed to lysis by ultrasonication for 10 seconds for 5 times, keeping on ice for 10 seconds and they were centrifuged at 4 °C in 13000 rpm for 10 minutes. The supernatant occurred was taken to 0,2 ml eppendorf tubes, and they were taken to -86 °C temperature. These operations were repeated for 3 times for each of the control and experiment groups.
Bradford method was used in order to determine the protein content. First, a standard curve was formed by using BSA (bovine serum albumin) having a concentration of 1.46 mg/ml. This curve was prepared as following: Bradford solution was added into 80 µg/ml, 40 µg/ml, 20 µg/ml, 10 µg/ml BSA, their absorbance was measured in 595 nm, it was diluted in a way that the lysates are 1/100 and 160 µl was taken, their absorbance in the same wavelengths was determined. After absorbance/concentration graph of the standards was obtained, the concentrations of the samples whose concentrations are […] were determined by using the slope equation of this graph.
Protein bands separated by electrophoresis in gel were transferred from the gel into nitrocellulose membrane. After membrane transferring operation, transfer efficiency was controlled for 15 minutes by using Ponceau S painting solution.
The membrane wherein the proteins were transferred, was incubated at room temperature for 1 hour with blocking solution prepared with skimmed milk powder. The membranes were incubated with primary antibodies suitable diluting ratios (Table 1) for 1 night at +4 °C, following the blocking operation. Following this operation, washed membranes were treated with peroxidase marked goat anti-rabbit secondary IgGs (Santa Cruz, CA, USA, sc-2004) at room temperature for 1 hour. Following the treatment with secondary antibodies of membranes, they were washed with washing solution and shaken with pure water. Then, the specific protein bands were monitored by KodakGL1500 gel monitoring system, by chemiluminescence method using Western Blotting Luminol Reagent (Santa Cruz, CA, USA, sc-2048) chemiluminescence substrate. Their densitometric analysis were performed by "Kodak Molecular Imaging Systems" software. The statistical analysis between the bands were performed by normalizing the band densities of the protein samples whose densitometric analysis were performed, to the density of β-actin protein. Table 1: The primary antibodies used in Western blotting method, the dilution ratios and periods thereof
In order to determine the apoptosis dose, p 53, cytochrome-c and active caspase-3 protein amounts were determined by western blotting method by obtaining lysate from the cells in which 0.75, 1,1.75,2,2.5 and 3 mM palmitic acid were applied. The graph obtained from western blotting bands and the calculation performed as a result of the analysis of these bands is shown in Figure 3.
The amount of intracellular proteins such as p53, cytochrome-c and active caspase-3 were observed by western blotting in order to examine the effect of curaglutide on apoptosis stimulated by 2 mM palmitic acid in INS-1 beta cells.

[2] = biological target: dipeptidyl peptidase IV (DPP-IV) (Homo sapiens, UniProt P27487); conditions: proteolytic enzyme DPP-IV; cited from earlier work
Sequence of dipeptidyl peptidase IV (DPP-IV) (P27487 whole entry, species assumed): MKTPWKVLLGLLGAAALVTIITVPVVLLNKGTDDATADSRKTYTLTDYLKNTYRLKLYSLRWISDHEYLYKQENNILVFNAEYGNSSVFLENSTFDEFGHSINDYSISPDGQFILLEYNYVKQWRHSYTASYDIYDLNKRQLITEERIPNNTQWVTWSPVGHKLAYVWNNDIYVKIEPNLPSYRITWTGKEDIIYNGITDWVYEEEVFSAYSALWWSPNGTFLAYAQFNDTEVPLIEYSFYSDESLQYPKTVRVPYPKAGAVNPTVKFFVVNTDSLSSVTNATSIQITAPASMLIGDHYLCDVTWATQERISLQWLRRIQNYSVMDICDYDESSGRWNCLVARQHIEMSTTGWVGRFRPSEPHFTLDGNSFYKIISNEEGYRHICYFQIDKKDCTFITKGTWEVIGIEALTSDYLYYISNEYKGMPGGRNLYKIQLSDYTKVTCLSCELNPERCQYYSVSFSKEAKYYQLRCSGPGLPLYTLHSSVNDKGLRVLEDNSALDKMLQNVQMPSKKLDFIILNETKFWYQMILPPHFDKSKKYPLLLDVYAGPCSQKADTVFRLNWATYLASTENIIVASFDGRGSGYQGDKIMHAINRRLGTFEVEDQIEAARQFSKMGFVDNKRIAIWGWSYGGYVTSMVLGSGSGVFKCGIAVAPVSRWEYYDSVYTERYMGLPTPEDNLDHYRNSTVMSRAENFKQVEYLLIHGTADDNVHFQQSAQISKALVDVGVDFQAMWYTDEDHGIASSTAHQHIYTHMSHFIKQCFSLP

[3] = tested on: INS-1 cells; assay: Lactate dehydrogenase (LDH) release cytotoxicity test (necrosis); format: cell-based, rat; conditions: for % cytotoxicity values: LDH secretion; for cytotoxicity value percentages: 24 h, positive control (lysis) 100%
Method: Lactate dehydrogenase (LDH) release test is based on the measurement of the activity of lactate dehydrogenase which is a cytoplasmic enzyme released from the dead cells or cells with damaged plasma membrane and it is used in cellular cytotoxicity assessment. The cytotoxic effect of palmitic acid on […] pancreatic INS-1 cell strain was determined by LDH activity released from the damaged cells and for this purpose Cytotoxicity Determination Kit, LDH (Roche Molecular Marker) was used.
In LDH test, as well as the experimental groups wherein palmitic acid was applied, negative control group for spontaneous LDH release from the cells and positive control group for LDH release were studied. Since palmitic acid in 0.5, 0.75 and 1 mM doses decreases the cell viability, these doses and the control group of the highest dose were studied. The cells were removed by trypsin-EDTA and centrifuged, after growth in 75 cm^2 flask. The cells were suspended in medium in a way such that there would be 50 000 cells in 100 µl, and 100 µl cell suspension was transferred into plates with 96 wells. 10 wells were studied for each of the control and experiment groups and the experiment was repeated for 3 times. After the incubation for 24 hours, the control groups were washed with PBS, and they were freshened with the medium without sodium pyruvate and beta-mercaptoethanol. The medium of the experiment groups was changed with the medium containing different concentrations of palmitic acid. Following the incubation of the cells with palmitic acid for 24 hours, LDH activity released from the cells was determined according to the instructions of the manufacturer. 5 µl lysis solution (2% Triton-X-100) was added to the wells of positive control group and the plate was incubated at 37 °C for 15 minutes. In order to measure LDH activity, the fresh reaction mixture prepared containing catalyst (Diaphorase+NAD mixture) and paint solution (Iodotetrazolium chloride (INT) and sodium lactate) was added to each of the wells. Following the incubation at room temperature for 30 minutes, the reaction was stopped by adding 50 µl stopping solution (IN HCl) to each of the wells. The plates were shaken in an orbital shaker for 10 seconds and the spectrophotometric absorbance was measured in 490 nm test wavelength and 690 nm reference wavelength. The results were determined as "cytotoxicity %". The average absorbance values of negative control were extracted from control and experiment groups and they were calculated by using the formula below by comparing control and experiment groups according to positive control group, and by assuming that positive control group is 100% cytotoxic: 100% Cytotoxicity = ((Experiment or Control Value)−(Negative Control))/((Positive Control)−(Negative Control)) × 100 [formula]
Lactate dehydrogenase release in INS-1 cells wherein different palmitic acid doses were applied was measured using cytotoxicity kit and the results are shown in Figure 4.
Protective and therapeutic effect of 10 nM curaglutide on necrosis is shown in Figure 10 by the evaluation of LDH secretion at 3 and 4 mM doses in INS-1 beta cells. According to the results, in INS-1 beta cells % cytotoxicity values are 48.2±2 in the group where 3 mM dose (necrotic dose) of palmitic acid was administered, 11.6±2.9 in the group where 10 nM curaglutide was administered as a protective against necrotic dose, 11.6±4.8 in the group where 10 nM curaglutide was supplied as a curative agent in necrotic dose, 81.3±5.9 in the group where 4 mM dose of palmitic acid was administered, […] in the group where curaglutide was administered as a protective against 4 mM palmitic acid, 68.2±7.2 in the group where 10 nM curaglutide was administered as therapeutic at 4 mM dose of palmitic acid. As compared to the control group, statistically meaningful results were obtained in both doses in terms of protective effect (p<0,0001). […]

Structure (SMILES) | amount of cytochrome-c ([1]; 10 nM curaglutide as curative agent, 2 mM palmitic acid (apoptotic dose)) | amount of cytochrome-c ([1]; 10 nM curaglutide as protector against 2 mM palmitic acid (apoptotic dose)) | destruction by DPP-IV [2] | % cytotoxicity values ([3]; 10 nM curaglutide as curative agent, 3 mM palmitic acid (necrotic dose)) [%] | % cytotoxicity values ([3]; 10 nM curaglutide as protective against 3 mM palmitic acid (necrotic dose)) [%] | % cytotoxicity values ([3]; 10 nM curaglutide as therapeutic at 4 mM palmitic acid) [%] | % cytotoxicity values ([3]; curaglutide as protective against 4 mM palmitic acid) [%] | cytochrome-c amounts ([1]; 0.75 mM palmitic acid, control 1.05±0.02) | cytochrome-c amounts ([1]; 1 mM palmitic acid, control 1.05±0.02) | cytochrome-c amounts ([1]; 1.75 mM palmitic acid, control 1.05±0.02) | cytochrome-c amounts ([1]; 2 mM palmitic acid (apoptotic dose), control 1.05±0.02 / 1.02±0.02) | cytochrome-c amounts ([1]; 2.5 mM palmitic acid, control 1.05±0.02) | cytochrome-c amounts ([1]; 3 mM palmitic acid, control 1.05±0.02) | cytotoxicity value percentages ([3]; 1 mM palmitic acid) [%] | cytotoxicity value percentages ([3]; 2 mM palmitic acid) [%] | cytotoxicity value percentages ([3]; 3 mM palmitic acid (necrotic dose)) [%] | cytotoxicity value percentages ([3]; 4 mM palmitic acid) [%]
CC[C@H](C)[C@H](NC(=O)[C@H](Cc1ccccc1)NC(=O)[C@H](CCC(=O)O)NC(=O)[C@H](CCCCN)NC(=O)[C@H](C)NC(=O)[C@H](C)NC(=O)[C@H](CCC(N)=O)NC(=O)CNC(=O)[C@H](CCC(=O)O)NC(=O)[C@H](CC(C)C)NC(=O)[C@H](Cc1ccc(O)cc1)NC(=O)[C@H](CO)NC(=O)[C@H](CO)NC(=O)[C@@H](NC(=O)[C@H](CC(=O)O)NC(=O)[C@H](CO)NC(=O)[C@@H](NC(=O)[C@H](Cc1ccccc1)NC(=O)[C@@H](NC(=O)CNC(=O)[C@H](CCC(=O)O)NC(=O)[C@H](C)NC(=O)[C@H](Cc1c[nH]cn1)NC(C)=O)[C@@H](C)O)[C@@H](C)O)C(C)C)C(=O)N[C@@H](C)C(=O)N[C@@H](Cc1c[nH]c2ccccc12)C(=O)N[C@@H](CC(C)C)C(=O)N[C@H](C(=O)N[C@@H](CCCCN)C(N)=O)C(C)C [curaglutide] | 0.67±0.07 | 0.80±0.10 | resistant to destruction by DPP-IV | 11.6±4.8 | 11.6±2.9 | 68.2±7.2 | 45.8±6.8 |  |  |  |  |  |  |  |  |  | 
CCCCCCCCCCCCCCCC(=O)O [palmitic acid] |  |  |  |  |  |  |  | 1.07±0.02 | 1.06±0.01 | 1.07±0.05 | 1.23±0.00 and 1.22±0.00 | 1.11±0.04 | 1.09±0.02 | 1±0 | 13.5±2.4 | 48.2±2 | 81.3±5.9
